# Measurements as given in PubChem BioAssay AID1259407 (Chemical Carcinogenesis Research Information System (CCRIS), 2018).
# Activity calls are given as the source filed them. The rule behind the calls is not given here.
# System: CCRIS mutagenicity, Ames/micronucleus/aberration tests
# Experiment: CCRIS mutagenicity studies
# [1] = Test System: AMES SALMONELLA TYPHIMURIUM, Strain/Indicator: TA98, Metabolic Activation: HAMSTER, LIVER, S-9, AROCLOR 1254 (10%), Method: PREINCUBATION
# [2] = Test System: AMES SALMONELLA TYPHIMURIUM, Strain/Indicator: TA98, Metabolic Activation: NONE, Method: PREINCUBATION
# [3] = Test System: AMES SALMONELLA TYPHIMURIUM, Strain/Indicator: TA98, Metabolic Activation: NONE, Method: STANDARD PLATE
# [4] = Test System: AMES SALMONELLA TYPHIMURIUM, Strain/Indicator: TA98, Metabolic Activation: RAT, LIVER, S-9, AROCLOR 1254 (10%), Method: PREINCUBATION
# [5] = Test System: AMES SALMONELLA TYPHIMURIUM, Strain/Indicator: TA100, Metabolic Activation: HAMSTER, LIVER, S-9, AROCLOR 1254 (10%), Method: PREINCUBATION
# [6] = Test System: AMES SALMONELLA TYPHIMURIUM, Strain/Indicator: TA100, Metabolic Activation: NONE, Method: PREINCUBATION
# [7] = Test System: AMES SALMONELLA TYPHIMURIUM, Strain/Indicator: TA100, Metabolic Activation: NONE, Method: STANDARD PLATE
# [8] = Test System: AMES SALMONELLA TYPHIMURIUM, Strain/Indicator: TA100, Metabolic Activation: RAT, LIVER, S-9, AROCLOR 1254 (10%), Method: PREINCUBATION
# [9] = Test System: AMES SALMONELLA TYPHIMURIUM, Strain/Indicator: TA1535, Metabolic Activation: HAMSTER, LIVER, S-9, AROCLOR 1254 (10%), Method: PREINCUBATION
# [10] = Test System: AMES SALMONELLA TYPHIMURIUM, Strain/Indicator: TA1535, Metabolic Activation: NONE, Method: PREINCUBATION
# [11] = Test System: AMES SALMONELLA TYPHIMURIUM, Strain/Indicator: TA1535, Metabolic Activation: RAT, LIVER, S-9, AROCLOR 1254 (10%), Method: PREINCUBATION
# [12] = Test System: AMES SALMONELLA TYPHIMURIUM, Strain/Indicator: TA1537, Metabolic Activation: NONE, Method: PREINCUBATION
structure (smiles),measurement,setting,value
ClCCCl,mutagenic call,"Test System: AMES SALMONELLA TYPHIMURIUM, Strain/Indicator: TA97, Metabolic Activation: HAMSTER, LIVER, S-9, AROCLOR 1254 (10%), Method: PREINCUBATION",inactive; negative
same,mutagenic call,"Test System: AMES SALMONELLA TYPHIMURIUM, Strain/Indicator: TA97, Metabolic Activation: NONE, Method: PREINCUBATION",inactive; negative
same,mutagenic call,"Test System: AMES SALMONELLA TYPHIMURIUM, Strain/Indicator: TA97, Metabolic Activation: NONE, Method: STANDARD PLATE",inactive; negative
same,mutagenic call,"Test System: AMES SALMONELLA TYPHIMURIUM, Strain/Indicator: TA97, Metabolic Activation: RAT, LIVER, S-9, AROCLOR 1254 (10%), Method: PREINCUBATION",inactive; negative
same,mutagenic call,"Test System: AMES SALMONELLA TYPHIMURIUM, Strain/Indicator: TA97, Metabolic Activation: RAT, LIVER, S-9, AROCLOR 1254, Method: STANDARD PLATE",active; positive
same,mutagenic call,[1],inactive; negative
same,mutagenic call,[2],inactive; negative
same,mutagenic call,[3],inactive; negative
same,mutagenic call,[4],inactive; negative
same,mutagenic call,"Test System: AMES SALMONELLA TYPHIMURIUM, Strain/Indicator: TA98, Metabolic Activation: RAT, LIVER, S-9, AROCLOR 1254, Method: STANDARD PLATE",active; positive
same,mutagenic call,[5],inactive; negative
same,mutagenic call,[6],inactive; negative
same,mutagenic call,[7],active; positive
same,mutagenic call,[8],inactive; negative
same,mutagenic call,"Test System: AMES SALMONELLA TYPHIMURIUM, Strain/Indicator: TA100, Metabolic Activation: RAT, LIVER, S-9, AROCLOR 1254, Method: STANDARD PLATE",active; positive
same,mutagenic call,"Test System: AMES SALMONELLA TYPHIMURIUM, Strain/Indicator: TA104, Metabolic Activation: NONE, Method: STANDARD PLATE",inactive; negative
same,mutagenic call,"Test System: AMES SALMONELLA TYPHIMURIUM, Strain/Indicator: TA104, Metabolic Activation: RAT, LIVER, S-9, AROCLOR 1254, Method: STANDARD PLATE",active; positive
same,mutagenic call,"Test System: AMES SALMONELLA TYPHIMURIUM, Strain/Indicator: TA1530, Metabolic Activation: NONE, Method: SPOT",active; positive
same,mutagenic call,[9],active; positive
same,mutagenic call,[10],inactive; negative
same,mutagenic call,"Test System: AMES SALMONELLA TYPHIMURIUM, Strain/Indicator: TA1535, Metabolic Activation: NONE, Method: SPOT",active; positive
same,mutagenic call,"Test System: AMES SALMONELLA TYPHIMURIUM, Strain/Indicator: TA1535, Metabolic Activation: NONE, Method: STANDARD PLATE",inactive; negative
same,mutagenic call,[11],active; positive
same,mutagenic call,"Test System: AMES SALMONELLA TYPHIMURIUM, Strain/Indicator: TA1535, Metabolic Activation: RAT, LIVER, S-9, Method: STANDARD PLATE",active; positive
same,mutagenic call,"Test System: AMES SALMONELLA TYPHIMURIUM, Strain/Indicator: TA1535, Metabolic Activation: S-9 MIX, Method: STANDARD PLATE",active; positive
same,mutagenic call,"Test System: Ames Salmonella typhimurium, Strain/Indicator: TA98, Metabolic Activation: None, Method: Preincubation",inactive; negative
same,mutagenic call,"Test System: Ames Salmonella typhimurium, Strain/Indicator: TA98, Metabolic Activation: Rat, Liver, S9, Sodium phenobarbital and 5,6-benzoflavone (10%), Method: Preincubation",inactive; negative
same,mutagenic call,"Test System: Ames Salmonella typhimurium, Strain/Indicator: TA100, Metabolic Activation: None, Method: Preincubation",inactive; negative
same,mutagenic call,"Test System: Ames Salmonella typhimurium, Strain/Indicator: TA100, Metabolic Activation: Rat, Liver, S9, Sodium phenobarbital and 5,6-benzoflavone (10%), Method: Preincubation",inactive; negative
same,mutagenic call,"Test System: Ames Salmonella typhimurium, Strain/Indicator: TA1535, Metabolic Activation: Rat, Liver, S9, Sodium phenobarbital and 5,6-benzoflavone (10%), Method: Preincubation",active; positive
same,mutagenic call,"Test System: Ames Salmonella typhimurium, Strain/Indicator: TA1537, Metabolic Activation: None, Method: Preincubation",inactive; negative
same,mutagenic call,"Test System: Ames Salmonella typhimurium, Strain/Indicator: TA1537, Metabolic Activation: Rat, Liver, S9, Sodium phenobarbital and 5,6-benzoflavone (10%), Method: Preincubation",inactive; negative
same,mutagenic call,"Test System: E. coli, Strain/Indicator: WP2uvrA/pKM101, Metabolic Activation: None, Method: Preincubation",inactive; negative
same,mutagenic call,"Test System: E. coli, Strain/Indicator: WP2uvrA/pKM101, Metabolic Activation: Rat, Liver, S9, Sodium phenobarbital and 5,6-benzoflavone (10%), Method: Preincubation",inactive; negative
ClCc1cc2cccc3ccc4c5ccccc5cc1c4c32,mutagenic call,[3],active; positive
same,mutagenic call,[7],active; positive
CC(=O)c1ccccc1[N+](=O)[O-],mutagenic call,[1],inactive; negative
same,mutagenic call,[2],inactive; negative
same,mutagenic call,[4],inactive; negative
same,mutagenic call,"Test System: AMES SALMONELLA TYPHIMURIUM, Strain/Indicator: TA98, Method: PREINCUBATION",inactive; negative
same,mutagenic call,[5],inactive; negative
same,mutagenic call,[6],inactive; negative
same,mutagenic call,[8],inactive; negative
same,mutagenic call,"Test System: AMES SALMONELLA TYPHIMURIUM, Strain/Indicator: TA100, Method: PREINCUBATION",inactive; negative
same,mutagenic call,[9],inactive; negative
same,mutagenic call,[10],inactive; negative
same,mutagenic call,[11],inactive; negative
same,mutagenic call,"Test System: AMES SALMONELLA TYPHIMURIUM, Strain/Indicator: TA1535, Method: PREINCUBATION",inactive; negative
same,mutagenic call,"Test System: AMES SALMONELLA TYPHIMURIUM, Strain/Indicator: TA1537, Metabolic Activation: HAMSTER, LIVER, S-9, AROCLOR 1254 (10%), Method: PREINCUBATION",inactive; negative
same,mutagenic call,[12],inactive; negative
same,mutagenic call,"Test System: AMES SALMONELLA TYPHIMURIUM, Strain/Indicator: TA1537, Metabolic Activation: RAT, LIVER, S-9, AROCLOR 1254 (10%), Method: PREINCUBATION",inactive; negative
same,mutagenic call,"Test System: AMES SALMONELLA TYPHIMURIUM, Strain/Indicator: TA1537, Method: PREINCUBATION",inactive; negative
same,mutagenic call,"Test System: AMES SALMONELLA TYPHIMURIUM, Strain/Indicator: TA1538, Metabolic Activation: NONE, Method: PREINCUBATION",inactive; negative
same,mutagenic call,"Test System: AMES SALMONELLA TYPHIMURIUM, Strain/Indicator: TA1538, Method: PREINCUBATION",inactive; negative
COc1ccc(Nc2c3ccccc3nc3ccccc23)cc1,mutagenic call,"Test System: AMES SALMONELLA TYPHIMURIUM, Strain/Indicator: TA1537, Metabolic Activation: NONE, Method: STANDARD PLATE",active; positive
C(=C\c1ccccc1)/c1ccccc1,mutagenic call,"Test System: AMES SALMONELLA TYPHIMURIUM, Strain/Indicator: TA98, Metabolic Activation: HAMSTER, LIVER, S-9, AROCLOR 1254, Method: PREINCUBATION",inactive; negative
same,mutagenic call,[2],inactive; negative
same,mutagenic call,"Test System: AMES SALMONELLA TYPHIMURIUM, Strain/Indicator: TA98, Metabolic Activation: RAT, LIVER, S-9, AROCLOR 1254, Method: PREINCUBATION",inactive; negative
same,mutagenic call,"Test System: AMES SALMONELLA TYPHIMURIUM, Strain/Indicator: TA100, Metabolic Activation: HAMSTER, LIVER, S-9, AROCLOR 1254, Method: PREINCUBATION",inactive; negative
same,mutagenic call,[6],inactive; negative
same,mutagenic call,"Test System: AMES SALMONELLA TYPHIMURIUM, Strain/Indicator: TA100, Metabolic Activation: RAT, LIVER, S-9, AROCLOR 1254, Method: PREINCUBATION",inactive; negative
same,mutagenic call,"Test System: AMES SALMONELLA TYPHIMURIUM, Strain/Indicator: TA1535, Metabolic Activation: HAMSTER, LIVER, S-9, AROCLOR 1254, Method: PREINCUBATION",inactive; negative
same,mutagenic call,[10],inactive; negative
same,mutagenic call,"Test System: AMES SALMONELLA TYPHIMURIUM, Strain/Indicator: TA1535, Metabolic Activation: RAT, LIVER, S-9, AROCLOR 1254, Method: PREINCUBATION",inactive; negative
same,mutagenic call,"Test System: AMES SALMONELLA TYPHIMURIUM, Strain/Indicator: TA1537, Metabolic Activation: HAMSTER, LIVER, S-9, AROCLOR 1254, Method: PREINCUBATION",inactive; negative
same,mutagenic call,[12],inactive; negative
same,mutagenic call,"Test System: AMES SALMONELLA TYPHIMURIUM, Strain/Indicator: TA1537, Metabolic Activation: RAT, LIVER, S-9, AROCLOR 1254, Method: PREINCUBATION",inactive; negative
